Test results: ChEMBL document CHEMBL5291721, “A preclinical secondary pharmacology resource illuminates target-adverse drug reaction associations of marketed drugs” (Nat Commun, 2023)

Columns and labels:
[1] = target: D(1A) dopamine receptor (Homo sapiens, UniProt P21728); type: functional, cell-based
[2] = target: Muscarinic acetylcholine receptor M3 (Homo sapiens, UniProt P20309)
[3] = target: Histamine H3 receptor (Homo sapiens, UniProt Q9Y5N1)
[4] = target: T1, Prostaglandin G/H synthase 1 (Rattus norvegicus, UniProt Q63921); type: functional
T1 sequence (Q63921 whole entry): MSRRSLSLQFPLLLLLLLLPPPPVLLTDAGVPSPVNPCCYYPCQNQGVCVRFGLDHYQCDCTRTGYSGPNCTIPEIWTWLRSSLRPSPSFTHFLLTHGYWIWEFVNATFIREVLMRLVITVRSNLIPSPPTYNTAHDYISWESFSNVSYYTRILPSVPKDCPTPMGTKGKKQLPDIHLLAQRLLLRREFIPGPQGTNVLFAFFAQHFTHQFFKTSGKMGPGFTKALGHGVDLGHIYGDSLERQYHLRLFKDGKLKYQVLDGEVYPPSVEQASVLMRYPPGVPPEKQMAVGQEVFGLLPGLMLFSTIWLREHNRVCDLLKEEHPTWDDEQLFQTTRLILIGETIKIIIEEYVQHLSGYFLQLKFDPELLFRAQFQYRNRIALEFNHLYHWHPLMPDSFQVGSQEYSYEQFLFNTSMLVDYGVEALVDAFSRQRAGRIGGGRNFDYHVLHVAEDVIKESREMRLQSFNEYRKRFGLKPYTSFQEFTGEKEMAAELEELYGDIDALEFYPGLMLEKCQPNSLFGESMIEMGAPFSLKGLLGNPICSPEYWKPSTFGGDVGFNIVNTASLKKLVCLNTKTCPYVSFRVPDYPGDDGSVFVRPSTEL

[5] = target: Vasopressin V2 receptor (Homo sapiens, UniProt P30518)
[6] = target: T2, Adenosine receptor A3 (Homo sapiens, UniProt P0DMS8)
T2 sequence (P0DMS8 whole entry): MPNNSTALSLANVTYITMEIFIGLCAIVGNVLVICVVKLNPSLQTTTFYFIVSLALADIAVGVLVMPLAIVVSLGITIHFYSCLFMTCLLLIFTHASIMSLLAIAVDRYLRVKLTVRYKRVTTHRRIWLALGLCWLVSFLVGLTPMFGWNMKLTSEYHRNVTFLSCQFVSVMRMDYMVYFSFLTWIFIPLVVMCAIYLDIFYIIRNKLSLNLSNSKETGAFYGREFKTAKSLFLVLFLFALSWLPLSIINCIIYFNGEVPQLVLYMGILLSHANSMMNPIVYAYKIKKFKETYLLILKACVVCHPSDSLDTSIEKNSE

[7] = target: Melanocortin receptor 4 (Homo sapiens, UniProt P32245)
Chain of Melanocortin receptor 4 (P32245 whole entry): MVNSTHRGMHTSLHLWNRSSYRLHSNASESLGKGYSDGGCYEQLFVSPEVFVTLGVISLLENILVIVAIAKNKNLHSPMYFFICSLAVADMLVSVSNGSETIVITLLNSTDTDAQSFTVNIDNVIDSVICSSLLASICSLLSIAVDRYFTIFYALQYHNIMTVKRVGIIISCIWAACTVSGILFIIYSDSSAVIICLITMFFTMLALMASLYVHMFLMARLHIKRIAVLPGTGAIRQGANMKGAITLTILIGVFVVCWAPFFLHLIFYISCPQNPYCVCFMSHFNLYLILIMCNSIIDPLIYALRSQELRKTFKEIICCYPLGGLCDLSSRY

[8] = target: Adenosine receptor A2a (Homo sapiens, UniProt P29274)
Chain of Adenosine receptor A2a (P29274 whole entry): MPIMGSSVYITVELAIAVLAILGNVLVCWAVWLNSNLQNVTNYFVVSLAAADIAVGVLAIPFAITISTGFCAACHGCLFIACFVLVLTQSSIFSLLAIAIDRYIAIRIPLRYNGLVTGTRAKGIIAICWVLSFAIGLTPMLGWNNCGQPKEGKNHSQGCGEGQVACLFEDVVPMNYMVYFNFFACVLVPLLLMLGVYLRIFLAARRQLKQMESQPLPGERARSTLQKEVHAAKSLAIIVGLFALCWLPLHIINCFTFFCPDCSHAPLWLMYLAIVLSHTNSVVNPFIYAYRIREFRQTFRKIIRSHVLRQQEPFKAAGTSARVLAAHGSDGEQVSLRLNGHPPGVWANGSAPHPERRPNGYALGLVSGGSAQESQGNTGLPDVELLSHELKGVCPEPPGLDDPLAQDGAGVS

[9] = target: T3, Progesterone receptor (Homo sapiens, UniProt P06401); type: functional
T3 sequence (P06401 whole entry): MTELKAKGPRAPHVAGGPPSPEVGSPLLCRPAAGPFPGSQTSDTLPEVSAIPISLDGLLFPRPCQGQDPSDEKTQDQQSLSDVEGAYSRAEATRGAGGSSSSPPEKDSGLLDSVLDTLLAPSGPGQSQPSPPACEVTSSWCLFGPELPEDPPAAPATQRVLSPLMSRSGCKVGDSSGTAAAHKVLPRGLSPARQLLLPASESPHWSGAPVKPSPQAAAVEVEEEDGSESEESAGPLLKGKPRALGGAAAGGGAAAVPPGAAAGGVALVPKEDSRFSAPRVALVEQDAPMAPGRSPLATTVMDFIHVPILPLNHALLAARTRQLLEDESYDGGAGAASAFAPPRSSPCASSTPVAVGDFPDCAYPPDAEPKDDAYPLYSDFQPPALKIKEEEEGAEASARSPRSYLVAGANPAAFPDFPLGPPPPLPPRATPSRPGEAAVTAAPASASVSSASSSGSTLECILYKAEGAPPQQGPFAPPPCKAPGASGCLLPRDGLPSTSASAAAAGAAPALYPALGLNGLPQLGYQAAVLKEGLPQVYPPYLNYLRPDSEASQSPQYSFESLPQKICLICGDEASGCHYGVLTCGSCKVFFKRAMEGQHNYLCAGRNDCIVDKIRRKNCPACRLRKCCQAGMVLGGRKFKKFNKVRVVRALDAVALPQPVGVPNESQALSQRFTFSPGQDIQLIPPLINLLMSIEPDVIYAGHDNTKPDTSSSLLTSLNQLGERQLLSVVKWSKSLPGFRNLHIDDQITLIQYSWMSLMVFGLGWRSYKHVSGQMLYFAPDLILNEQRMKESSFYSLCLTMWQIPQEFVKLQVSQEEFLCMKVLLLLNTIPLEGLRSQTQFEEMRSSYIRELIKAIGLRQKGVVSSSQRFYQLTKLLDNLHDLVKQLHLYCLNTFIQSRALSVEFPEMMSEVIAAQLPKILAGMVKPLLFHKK

[10] = target: T4, Cholecystokinin receptor type A (Homo sapiens, UniProt P32238)
T4 sequence (P32238 whole entry): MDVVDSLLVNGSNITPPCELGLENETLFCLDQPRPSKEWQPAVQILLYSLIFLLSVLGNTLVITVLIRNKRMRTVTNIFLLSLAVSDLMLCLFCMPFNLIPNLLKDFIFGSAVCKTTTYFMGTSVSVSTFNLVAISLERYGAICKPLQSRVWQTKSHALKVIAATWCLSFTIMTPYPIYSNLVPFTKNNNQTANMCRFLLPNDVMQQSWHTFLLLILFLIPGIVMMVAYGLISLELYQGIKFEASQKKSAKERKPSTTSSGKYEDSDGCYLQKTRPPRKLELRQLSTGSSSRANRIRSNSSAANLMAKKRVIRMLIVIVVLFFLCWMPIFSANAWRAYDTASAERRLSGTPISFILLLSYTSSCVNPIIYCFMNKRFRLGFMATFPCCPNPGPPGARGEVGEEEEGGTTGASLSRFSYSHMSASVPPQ

Measured: AC50
Note: assay procedure not described here.

Chain of D(1A) dopamine receptor (P21728 whole entry): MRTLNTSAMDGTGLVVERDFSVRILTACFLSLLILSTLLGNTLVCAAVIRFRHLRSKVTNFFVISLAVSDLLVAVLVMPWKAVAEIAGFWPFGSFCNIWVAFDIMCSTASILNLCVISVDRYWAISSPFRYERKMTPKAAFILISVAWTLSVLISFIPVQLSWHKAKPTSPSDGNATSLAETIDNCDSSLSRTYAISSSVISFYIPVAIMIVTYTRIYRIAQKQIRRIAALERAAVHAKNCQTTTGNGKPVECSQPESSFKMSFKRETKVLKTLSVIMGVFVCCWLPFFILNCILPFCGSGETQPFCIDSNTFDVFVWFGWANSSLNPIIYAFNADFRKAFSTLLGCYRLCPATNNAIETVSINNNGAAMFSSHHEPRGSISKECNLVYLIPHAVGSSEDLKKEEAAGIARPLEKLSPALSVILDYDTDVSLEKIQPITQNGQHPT
Chain of Histamine H3 receptor (Q9Y5N1 whole entry): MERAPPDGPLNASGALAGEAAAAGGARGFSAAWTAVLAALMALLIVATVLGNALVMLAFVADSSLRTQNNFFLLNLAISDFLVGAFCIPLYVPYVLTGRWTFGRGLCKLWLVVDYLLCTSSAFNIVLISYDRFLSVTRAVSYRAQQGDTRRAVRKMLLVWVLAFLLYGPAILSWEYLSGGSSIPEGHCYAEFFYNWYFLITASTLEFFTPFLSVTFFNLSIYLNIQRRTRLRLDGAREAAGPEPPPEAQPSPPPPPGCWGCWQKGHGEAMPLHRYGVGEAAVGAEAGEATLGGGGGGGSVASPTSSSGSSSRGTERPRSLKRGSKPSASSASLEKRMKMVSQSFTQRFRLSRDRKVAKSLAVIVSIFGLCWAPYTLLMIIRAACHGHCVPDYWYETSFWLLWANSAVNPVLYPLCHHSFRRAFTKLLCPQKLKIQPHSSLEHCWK
Chain of Muscarinic acetylcholine receptor M3 (P20309 whole entry): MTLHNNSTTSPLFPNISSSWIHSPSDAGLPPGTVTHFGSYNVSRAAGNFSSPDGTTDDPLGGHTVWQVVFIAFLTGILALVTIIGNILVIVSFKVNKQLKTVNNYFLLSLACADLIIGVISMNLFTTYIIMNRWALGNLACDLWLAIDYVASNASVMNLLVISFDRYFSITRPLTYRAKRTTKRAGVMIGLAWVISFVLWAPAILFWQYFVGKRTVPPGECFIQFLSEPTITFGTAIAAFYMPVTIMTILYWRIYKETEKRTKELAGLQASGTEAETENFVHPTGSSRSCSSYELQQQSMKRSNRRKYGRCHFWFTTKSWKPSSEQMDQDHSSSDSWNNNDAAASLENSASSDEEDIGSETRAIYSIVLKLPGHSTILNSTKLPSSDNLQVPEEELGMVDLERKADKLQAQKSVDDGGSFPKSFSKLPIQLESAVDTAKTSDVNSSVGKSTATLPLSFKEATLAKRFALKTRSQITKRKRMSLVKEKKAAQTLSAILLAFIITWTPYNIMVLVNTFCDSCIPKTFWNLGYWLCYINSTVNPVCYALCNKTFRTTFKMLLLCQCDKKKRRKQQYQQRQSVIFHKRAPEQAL

CN1C(=O)CN=C(c2ccccc2F)c2cc([N+](=O)[O-])ccc21 [FLUNITRAZEPAM]
> 10 µM: [1] | [3]
not listed: [9] | [10]
> 30 µM: all other assays above

CC(=O)N1CCN(c2ccc(OCC3COC(Cn4ccnc4)(c4ccc(Cl)cc4Cl)O3)cc2)CC1 (stereo unspecified) [KETOCONAZOLE]
17.7 µM: [6]
> 30 µM: [8]
not listed: [2]
> 10 µM: all other assays above

CN1CCC(=C2c3ccccc3CC(=O)c3sccc32)CC1 [KETOTIFEN]
not listed: [2] | [3]
> 10 µM: all other assays above

CC(=O)[C@@]1(O)CC[C@H]2[C@@H]3C[C@H](C)C4=CC(=O)C=C[C@]4(C)[C@@]3(F)[C@@H](O)C[C@@]21C [FLUOROMETHOLONE]
not listed: [2] | [9]
> 10 µM: all other assays above

CC1CC(OC(=O)C(O)c2ccccc2)CC(C)(C)C1 (stereo unspecified) [CYCLANDELATE]
> 30 µM: [9]
not listed: [2]
> 10 µM: all other assays above

O=C1CN=C(c2ccccc2Cl)c2cc([N+](=O)[O-])ccc2N1 [CLONAZEPAM]
> 10 µM: [1] | [3]
not listed: [2] | [9]
> 30 µM: all other assays above

CN(Cc1ccc(C(C)(C)C)cc1)Cc1cccc2ccccc12 [BUTENAFINE]
> 30 µM: [9]
not listed: [2]
> 10 µM: all other assays above

CC(C)(C)NCC(O)COc1cccc2c1CC(O)C(O)C2 (stereo unspecified) [NADOLOL]
not listed: [2]
> 10 µM: all other assays above

Cc1cnc(Nc2ccc(OCCN3CCCC3)cc2)nc1Nc1cccc(S(=O)(=O)NC(C)(C)C)c1 [FEDRATINIB]
> 10 µM: [1]
3.9 µM: [3]
5.7 µM: [2]
3.75 µM: [8]
6.83 µM: [6]
not listed: [9]
> 30 µM: all other assays above

Cc1nnc2n1-c1ccc(Cl)cc1C(c1ccccc1)=NC2 [ALPRAZOLAM]
> 10 µM: [1] | [3]
not listed: [2] | [9]
> 30 µM: all other assays above

CCC1(C)CC(=O)NC1=O (stereo unspecified) [ETHOSUXIMIDE]
> 30 µM: [1]
not listed: [2] | [3]
> 10 µM: all other assays above

CCOC(=O)C1=C(C)NC(C)=C(C(=O)OC)C1c1cccc(Cl)c1Cl (stereo unspecified) [FELODIPINE]
> 10 µM: [1] | [3]
7.91 µM: [6]
not listed: [2] | [9]
> 30 µM: all other assays above

TEPRENONE
16.1 µM: [4]
> 10 µM: [1] | [3]
not listed: [9]
> 30 µM: all other assays above

Cc1cccc(Nc2ccncc2S(=O)(=O)NC(=O)NC(C)C)c1 [TORSEMIDE]
> 10 µM: [1] | [9] | [4]
not listed: [2] | [3]
> 30 µM: all other assays above

CCN(C(C)=O)c1cccc(-c2ccnc3c(C#N)cnn23)c1 [ZALEPLON]
> 10 µM: [1] | [3]
not listed: [2]
> 30 µM: all other assays above

CN1C2CCCC1CC(NC(=O)c1nn(C)c3ccccc13)C2 (stereo unspecified) [GRANISETRON]
> 10 µM: [1] | [3]
not listed: [2] | [9]
> 30 µM: all other assays above

CCN(CC)C(C)C(=O)c1ccccc1 (stereo unspecified) [DIETHYLPROPION]
> 10 µM: [1] | [3]
not listed: [9]
> 30 µM: all other assays above

Nc1cc(N2CCCCC2)nc(N)[n+]1[O-] [MINOXIDIL]
> 10 µM: [3]
not listed: [2] | [9]
> 30 µM: all other assays above

O=C(O)CCCC[C@@H]1SC[C@@H]2NC(=O)N[C@@H]21 [BIOTIN]
> 30 µM: [2]
not listed: [3] | [9]
> 10 µM: all other assays above

CC1=C(CC(=O)O)c2cc(F)ccc2/C1=C\c1ccc([S+](C)[O-])cc1 (stereo unspecified)
> 10 µM: [1] | [3]
not listed: [2] | [9]
> 30 µM: all other assays above

CC1Cc2ccccc2N1NC(=O)c1ccc(Cl)c(S(N)(=O)=O)c1 (stereo unspecified) [INDAPAMIDE]
> 10 µM: [1] | [3]
not listed: [2] | [9]
> 30 µM: all other assays above
